# Columns and labels:
# FoxM1 = FoxM1 protein (immunoblot) and mRNA (RT-PCR) levels in C3-Luc cells; type: cell-based, human; conditions: 24 hrs
# From the text: FIG. 3. Mechanisms of FoxM1 inhibition by Siomycin A. (A) C3-Luc cells treated as indicated were harvested after 8 hrs and cell lysates were used for immunoprecipitation of FoxM1 protein. These samples were resolved on an SDS-PAGE gel and immunoblotted to determine total and phospho-FoxM1 levels. (B) C3-Luc cells treated with Siomycin A or DMSO were harvested 24 hrs later and the lysates were used to determine FoxM1 protein levels by immunoblotting. (C) RNA from C3-Luc cells treated with Siomycin A or DMSO for 24 hrs was used to determine levels of FoxM1 mRNA using real-time quantitative RT-PCR.
# Cells treated with Siomycin A or DMSO (control) were harvested 24 hrs later and RNA was extracted using the TRIzol reagent (15596-026; Invitrogen). cDNA was prepared from this RNA using the Bio-Rad cDNA synthesis kit. […]
# (§1) Immunoblotting was performed as described (18-20) with antibodies specific for p21 (556431; BD Pharmingen), survivin (sc-10811; Santa Cruz), cleaved caspase-3 (9664; Cell Signaling), and β-actin (A5441; Sigma) antibodies. Immunoblot for FoxM1 was done using the previously generated rabbit antisera (2), and phospho-FoxM1 was detected using the MPM2 monoclonal antibody (Upstate Biotechnology) which recognizes the phosphorylated protein sequence phosphoserine/phosphothreonine-proline.
# [1] = test system: Leukemia cell lines CEM, HL60 and U937; assay: FoxM1 and cleaved caspase-3 immunoblot in leukemia cell lines; type: cell-based, human; conditions: 5 μM, 48 hrs
# Procedure: FIG. 10. […] Leukemia cell lines CEM, HL60 and U937 were treated with 5 μM Siomycin A and thiostrepton, respectively, for 48 hrs and the cell lysates were analyzed for the levels of FoxM1 and cleaved caspase-3 by immunoblotting.
# as §1
# Next we treated leukemia cell lines with mutant p53 CEM, HL60 and U937 with 5 μM of these compounds for 48 hrs and the cell lysates were analyzed for the levels of FoxM1 and cleaved caspase-3 by immunoblotting.
# survivin, and p21^WAF1 = assay: Immunoblot of survivin and p21WAF1 in C3-Luc cells; type: cell-based, human; conditions: 24 hrs
# Procedure: (§2) FIG. 2. Siomycin A inhibits endogenous FoxM1 transcriptional activity. (A) C3-Luc cells without doxycycline induction, were treated with increasing dose of Siomycin A and luciferase activity was determined as described in Example 1. (B) C3-Luc cells treated either with DMSO (control) or Siomycin A were harvested 24 hrs later and the RNA was subjected to real-time RT-PCR for quantitation of mRNA levels of FoxM1 target genes Cdc25B, Survivin, and CENPB. (C) C3-Luc cells treated as indicated were harvested 24 hrs later and used for immunoblot analysis to determine the levels of survivin, and p21^WAF1. β-actin protein levels were used as loading control.
# as §1
# 293 and Hela cells = assay: Sensitization to TNF-alpha-induced apoptosis (cleaved caspase-3 immunoblot); type: cell-based, human; conditions: 1 μM Siomycin A and 10 ng/ml TNF-alpha, 24 hours
# Procedure: FIG. 14. […] 293 (A) and Hela (B) cells were pretreated with the indicated concentrations of Sulfazalazine (control) for overnight. The following day the cells were treated with 1 μM Siomycin A and 10 ng/ml TNF-alpha as indicated. Twenty-four hours later the cells were harvested and the total cell lysates were used to determine the level of cleaved caspase-3. β-actin was used as the loading control.
# [2] = test system: Liver cancer cell lines Huh7, Hep-3B and SK-Hep; assay: FoxM1 and cleaved caspase-3 immunoblot in liver cancer cell lines; type: cell-based, human; conditions: 10 μM, 48 hrs
# Procedure: FIG. 9. […] Liver cancer cell lines Huh7, Hep-3B and SK-Hep were treated with 10 μM Siomycin A and thiostrepton, respectively, for 48 hrs, and the cell lysates were analyzed for the levels of FoxM1 and cleaved caspase-3 by immunoblotting.
# as §1
# First, we treated liver cancer cell lines Huh7, Hep-3B and SK-Hep that have deleted or mutant p53 with these compounds for 48 hrs, and the cell lysates were analyzed for the levels of FoxM1 and cleaved caspase-3 by immunoblotting.
# [3] = test system: FoxM1 target genes Cdc25B, Survivin, and CENPB; assay: Real-time quantitative RT-PCR of FoxM1 target gene mRNA in C3-Luc cells; type: cell-based, human; conditions: 24 hrs, vs DMSO
# Procedure: as §2
# Cells treated with Siomycin A or DMSO (control) were harvested 24 hrs later and RNA was extracted using the TRIzol reagent (15596-026; Invitrogen). cDNA was prepared from this RNA using the Bio-Rad cDNA synthesis kit. The following sense (S) and antisense (AS) primer sequences and annealing temperatures (Ta) were used to amplify and measure the amount of human mRNA by real-time RT-PCR: FoxM1-S, 5′-GGAGGAAATGCCACACTTAGCG-3′ (SEQ ID NO: 1), and FoxM1-AS, 5′-TAGGACTTCTTGGGTCTTGGGGTG-3′ (SEQ ID NO: 2) (Ta, 55.7° C.); survivin-S, 5′-TCAAGGACCACCGCATCTCTA-3′ (SEQ ID NO: 3), and survivin-AS, 5′-TGAAGCAGAAGAAACACTGGGC-3′ (SEQ ID NO: 4) (Ta, 61° C.); CENPB-S, 5′-ATTCAGACAGTGAGGAAGAGGACG-3′ (SEQ ID NO: 5), and CENPB-AS, 5′-CATCAATGGGGAAGGAGGTCAG-3′ (SEQ ID NO: 6) (Ta, 58° C.); Cdc25B-S, 5′-CCCTTCCCTGTTTTCCTTTC-3′ (SEQ ID NO: 7), and Cdc25B-AS, 5′-ACACACACTCCTGCCATAGG-3′ (SEQ ID NO: 8) (Ta, 61.7° C.). These real-time RT-PCR RNA levels were normalized to human cyclophilin mRNA levels, and these primers are as follows: cyclophilin-S, 5′-GCAGACAAGGTCCCAAAGACAG-3′ (SEQ ID NO: 9), and cyclophilin-AS, 5′-CACCCTGACACATAAACCCTGG-3′ (SEQ ID NO: 10) (Ta, 55.7° C.).
# [4] = test system: HCT116 colon cancer cells; conditions: another study (ref. 27); cited from earlier work
structure (smiles),measurement,setting,value
C=C(NC(=O)C(=C)NC(=O)c1csc(C2=N[C@@H]3c4csc(n4)[C@H]4NC(=O)c5csc(n5)[C@H]([C@](C)(O)[C@@H](C)O)NC(=O)[C@H]5CSC(=N5)/C(=C/C)NC(=O)[C@H]([C@@H](C)O)NC(=O)c5csc(n5)[C@]3(CC2)NC(=O)[C@H](C)NC(=O)C(=C)NC(=O)C(=C)NC(=O)[C@H](C(C)C)N[C@@H]2C=Cc3c([C@H](C)O)cc(nc3[C@H]2O)C(=O)O[C@@H]4C)n1)C(N)=O [Siomycin A],FoxM1 mRNA levels,FoxM1,significantly decreased
same,FoxM1 protein levels,FoxM1,significantly decreased
same,FoxM1 expression,[1],inhibit FoxM1 expression
same,apoptosis (cleaved caspase-3),[1],induce apoptosis
same,p21^WAF1 protein levels,"survivin, and p21^WAF1",increase in its protein levels
same,protein levels of survivin,"survivin, and p21^WAF1",dramatically reduced
same,sensitization to TNF-alpha-induced apoptosis,293 and Hela cells,sensitize human cancer cells to TNF-alpha-induced apoptosis
same,FoxM1 protein expression,[2],repress FoxM1 protein expression
same,apoptosis (cleaved caspase-3),[2],induce apoptosis
same,CENPB mRNA level compared to initial level,[3],15%
same,Cdc25B mRNA level relative to basal value,[3],32%
same,Survivin mRNA level compared to initial level,[3],48%
same,cell death mechanism in HCT116 cells,[4],"induced Endoplasmic reticulum stress, and lysosomal membrane permeabilization followed by cell death"

# — patent US8029980B2, “Identification and use of agents that modulate oncogenic transcription agent activity” (The Board of Trustees of the University of Illinois, priority 2006, dated 2011)
